# Patent US9586885B2, “Compounds for use in the treatment of inflammatory bowel disease” (Venantius Limited, priority 2011, dated 2017)
# Like-named read-outs stand apart in the source and are kept apart here.
# Key:
# [1] = system: 5% DSS colitis; assay: Acute murine 5% DSS colitis model; assay type: in vivo; details: for inhibition of colon shortening (colon length) day 7 versus vehicle: FIG. 10; for colon pathology (histology score) relative to vehicle: FIG. 12; for colon IL1β level versus DSS vehicle / colon TNFα level versus DSS vehicle / colon IL6 level versus DSS vehicle / reduction of colonic myeloperoxidase (MPO) activity: day 7; for colon IL1β level versus DSS vehicle: FIG. 14(a); for colon TNFα level versus DSS vehicle: FIG. 14(b); for colon IL6 level versus DSS vehicle: FIG. 14(c); for reduction of colonic myeloperoxidase (MPO) activity: FIG. 13; for DAI on the day of autopsy versus vehicle controls: FIG. 9; for effect on DAI compared to vehicle control: FIG. 5
# Source text: The study is widely used as a model for studying the pathogenesis of UC and also for screening new therapeutic interventions for the treatment of UC.
# In these studies, an acute colitis model was used, with 5% DSS administered in the drinking water of BALB/c mice. This dosage regime induces severe acute colitis, by days 7-8 mice had overt rectal bleeding and marked weight loss; unless sacrificed beforehand, all mice would have died by days 10-12.
# Specific Pathogen-Free BALB/c mice, 6-8 weeks of age, were obtained from a commercial supplier (Harlan UK). Mice were fed irradiated diet and housed in individually ventilated cages (Tecniplast UK) under positive pressure.
# DSS (5%) was dissolved in drinking water. Compounds were administered orally at a dose of 10 mg/kg or 30 mg/kg on days 0-7, and mice were culled on day 8 or day 9, depending on the severity of the disease. The mice were checked each day for morbidity and the weight of individual mice was recorded. Induction of colitis was determined upon autopsy, length of colon and histology. Colons were recovered and stored at −20° C. for immunological analysis. All of the compounds and experimental groups are randomly alphabetically labelled. Throughout experiments all data recording was performed in a blind manner. The codes on boxes/groups were not broken until after the data was analysed i.e. boxes labelled A, B, C etc were identified as untreated, DSS-treated, or DSS+compound-treated.
# To quantify the extent of colitis, a disease activity index (DAI) was determined based on weight loss, faecal blood and stool consistency. A score was given for each parameter, with the sum of the scores used as the DAI. For each treatment group n=8.
# All compounds were prepared for oral gavage (0.1 mL per os (p.o.) per 10 g body weight) as a suspension in 0.5% carboxymethyl cellulose/2% Tween 80, at a dose of 3-30 mg/Kg.
# [2] = system: chronic colitis in IL10^--/-- mice; assay: Chronic IL10-/- colitis model; assay type: in vivo, BALB/c strain mice; details: 300 mg/kg/week oral, MWF
# Protocol: FIG. 15 Is a grph showing weight loss in IL10^--/--mice treated with vehicle or compound 6. Mice were administered compound 6 (300 mg/kg/week) or vehicle orally on a Monday/Wednesday/Friday (MWF) dosing schedule. Mice were ˜4 weeks of age at start of experiment and were treated for 9 weeks. Mice were weighed weekly and data are presented as Mean±SEM from 9-12 mice per group. Mice were monitored for overt disease, rectal prolapse, and moribund animals were humanely killed;
# Mice with a deletion in the IL10^--/-- gene spontaneously develop chronic colitis, with the age of onset and the severity of the disease being dependent on background mouse strain and the conditions in which the animals are housed. The onset of colitis in IL10^--/-- mice housed under the conditions used in this study was also strain dependent, with an earlier onset and greater severity, in terms of mortality, in BALB/c strain mice relative to C57BL/6 strain animals. In this experiment, animals received oral treatment on a MWF regime over 9 weeks. Initially, both groups of mice progressively gain weight (FIG. 15). […] By week 9 animals had marked weight loss, with one moribund animal humanely killed on day 60 in each group. As other mice were losing weight and developing clinical symptoms of disease, both groups were culled at week 9 (day 63) and analysed. […] Serum was recovered from mice and Serum Amyloid A (SAA) and was analysed as a marker for severity of colitis.
# [3] = Solubility in water and buffers; assay type: physicochemical; details: for aqueous solubility (in words): free acid enantiomers
# Protocol: The sodium salt, potassium salt, calcium salt, α-methylbenzylamine salt and N-Methyl-(D)-Glucamine salt were synthesised.
# The solubility of the four compounds was determined: […]
# [4] = Partition coefficient by HPLC method (reverse phase C18); assay type: physicochemical; details: for Acid Log10 POW: acidic pH; for Basic Log10 POW: alkaline pH; for Neutral Log10 POW: neutral pH
# [5] = 10 mg/kg daily for 7 days, vehicle 9.3±0.51, FIG. 6
# [6] = 30 mg/kg p.o. daily for 7 days, vehicle controls 9.0+0.53, FIG. 4
structure (smiles),measurement,setting,value
"O=C(O)c1ccc(C[C@@]2(C3=Cc4ccccc4C3)Cc3ccccc3[C@H]2O)cc1 [Compound 6, 6-(Methylamino)hexane-1,2,3,4,5-pentanol 4-(((1S,2S)-1-hydroxy-2,3-dihydro-1H,1′H-2,2′-biinden-2-yl)methyl)benzoate]",inhibition of colon shortening (colon length) day 7 versus vehicle,[1]; 3 mg/kg,did not have a significant effect
same,colon pathology (histology score) relative to vehicle,"[1]; 10 mg/Kg, P<0.01",highly statistically significant reduction
same,disease activity index (DAI) at day 7,[1]; [5],3.3±0.52
same,inhibition of colon shortening (colon length) day 7 versus vehicle,[1]; 10 mg/kg,did have a significant effect
same,therapeutic efficacy in the DSS model relative to prednisolone,[1]; 30 mg/Kg versus prednisolone 5 mg/Kg,"comparable, or better, efficacy relative to prednisolone"
same,colon pathology (histology score) relative to vehicle,"[1]; 30 mg/Kg, P<0.01",highly statistically significant reduction
same,colon length day 7 compared with Prednisolone,"[1]; 30 mg/kg versus Prednisolone 5 mg/kg, P<0.05",significantly better than Prednisolone
same,colon IL1β level versus DSS vehicle,[1]; 30 mg/kg,"significant (P<0.05, 30 mg/kg) and dose-dependant reduction"
same,colon TNFα level versus DSS vehicle,[1]; 30 mg/kg,"significant (P<0.05, 30 mg/kg) and dose-dependant reduction"
same,colon IL6 level versus DSS vehicle,[1]; 30 mg/kg,"significant (P<0.05, 30 mg/kg) and dose-dependant reduction"
same,reduction of colonic myeloperoxidase (MPO) activity,"[1]; 30 mg/kg, P<0.05",63%
same,inhibition of colon shortening (colon length) day 7 versus vehicle,[1]; 30 mg/kg,did have a significant effect
same,"severity of colitis, multiple parameters of disease","[1]; 3, 10 and 30 mg/Kg oral daily for 7 days, dose-dependent",ameliorated the severity of colitis
same,DAI on the day of autopsy versus vehicle controls,"[1]; 3-30 mg/kg, each dose level",significantly (P<0.05−P<0.01) lower DAI
same,overt reactions in mice,"[1]; oral daily for 7 days, 3, 10 and 30 mg/Kg",no overt reactions
same,survival over 9 weeks by Kaplan-Meier analysis versus vehicle,[2],no statistical difference in survival
same,mortalities,"[2]; 9 weeks, vehicle 25%",9.2%
same,weight gain,"[2]; 9 weeks, vehicle stopped gaining from week 5, FIG. 15",maintained weight gain until week 8
same,Serum Amyloid A (SAA) levels relative to vehicle,"[2]; week 9, FIG. 16",significantly (P<0.05; Student's t-test) reduced SAA levels
same,extent of colon pathology (histology score of distal colon) relative to vehicle,"[2]; week 9, P<0.05, FIG. 18",significantly reduced
same,solubility,"[3]; Milli-RO water, * = estimated value, read-out: solubility Milli-RO H20",> 60 mg/mL
same,solubility,"[3]; aqueous buffer, pH 7.0 buffer, * = estimated value, read-out: solubility pH 7.0 Buffer",> 60 mg/mL
same,solubility,"[3]; aqueous buffer, pH 9.0 buffer, * = estimated value, read-out: solubility pH 9.0 Buffer",> 3 mg/mL
same,Acid Log10 POW,[4],2.6
same,Basic Log10 POW,[4],4.3
same,Neutral Log10 POW,[4],3.5
"O=C(O)c1ccc(C[C@]2(C3=Cc4ccccc4C3)Cc3ccccc3[C@@H]2O)cc1 (single isomer, unassigned) [Compound 3]",activity in 5% DSS murine colitis model (conclusion),[1]; 30 mg/kg p.o. daily for 7 days,minimal activity
same,disease activity index (DAI) at day 7,[1]; [6],5.3±0.6
same,DAI versus vehicle at day 6,"[1]; 30 mg/kg p.o. daily, FIG. 3",no statistical (P>0.05) difference
"CNCC(O)C(O)C(O)C(O)CO.O=C(O)c1ccc(C[C@]2(C3=Cc4ccccc4C3)Cc3ccccc3[C@H]2O)cc1 [Compound 7, 6-(Methylamino)hexane-1,2,3,4,5-pentanol 4-(((1S,2R)-1-hydroxy-2,3-dihydro-1H,1′H-2,2′-biinden-2-yl)methyl)benzoate]",effect on DAI compared to vehicle control,[1]; 10 mg/kg daily for 7 days,no significant (P>0.05) effect
same,solubility Milli-RO H20,"[3]; Milli-RO water, * = estimated value, listed as Compound 5 N-Methyl-D-Glucamine salt",">60,000* μg/mL"
same,solubility pH 4.0 Buffer,[3]; pH 4.0 buffer,0.14 μg/mL
same,solubility pH 7.0 Buffer,"[3]; pH 7.0 buffer, * = estimated value, listed as Compound 5 N-Methyl-D-Glucamine salt",">60,000* μg/mL"
same,solubility pH 9.0 Buffer,"[3]; pH 9.0 buffer, * = estimated value, listed as Compound 5 N-Methyl-D-Glucamine salt",">60,000* μg/mL"
same,Acid Log10 POW,[4],3.8
same,Basic Log10 POW,[4],3.5
same,Neutral Log10 POW,[4],3.5
"O=C(O)c1ccc(C[C@@]2(C3=Cc4ccccc4C3)Cc3ccccc3[C@H]2O)cc1 (single isomer, unassigned) [Compound 2]",disease activity index (DAI) at day 7,[1]; [5],2.1±0.7
same,activity in 5% DSS murine colitis model (conclusion),[1]; 30 mg/kg p.o. daily for 7 days,highly active
same,disease activity index (DAI) at day 7,[1]; [6],2.5±0.71
same,aqueous solubility (in words),[3],limited aqueous solubility
"O=C(O)c1ccc(C[C@]2(C3=Cc4ccccc4C3)Cc3ccccc3[C@H]2O)cc1 [Compound 5, 4-(((1S,2R)-1-hydroxy-2,3-dihydro-1H,1′H-2,2′-biinden-2-yl)methyl)benzoic acid]",effect on DAI compared to vehicle control,[1]; 10 mg/kg daily for 7 days,no significant (P>0.05) effect
same,activity in 5% DSS murine colitis model (conclusion),[1]; 30 mg/kg p.o. daily for 7 days,highly active
same,disease activity index (DAI) at day 7,[1]; [6],3.2±0.73
same,aqueous solubility (in words),[3],limited aqueous solubility
same,Acid Log10 POW,[4],3.9
same,Basic Log10 POW,[4],3.7
same,Neutral Log10 POW,[4],3.7
"C[C@]12C=CC(=O)C=C1CC[C@@H]1[C@@H]2[C@@H](O)C[C@@]2(C)[C@H]1CC[C@]2(O)C(=O)CO [Prednisolone, reference compound]",colon pathology (histology score) relative to vehicle,[1]; 5 mg/Kg,no significant improvement
same,colon IL1β level versus DSS vehicle,[1]; 5 mg/kg,reduced (p<0.05)
same,colon TNFα level versus DSS vehicle,[1]; 5 mg/kg,reduced (p<0.05)
same,colon IL6 level versus DSS vehicle,[1]; 5 mg/kg,reduced (p<0.05)
same,reduction of colonic myeloperoxidase (MPO) activity,"[1]; 5 mg/kg, P<0.05",54%
same,DAI on the day of autopsy versus vehicle controls,[1]; 5 mg/kg,reduced DAI scores
same,inhibition of colon shortening (colon length) day 7 versus vehicle,[1]; 5 mg/kg,did have a significant effect
"O=C(O)c1ccc(C[C@@]2(C3=Cc4ccccc4C3)Cc3ccccc3[C@@H]2O)cc1 [Compound 4, 4-(((1R,2S)-1-hydroxy-2,3-dihydro-1H,1′H-2,2′-biinden-2-yl)methyl)benzoic acid]",activity in 5% DSS murine colitis model (conclusion),[1]; 30 mg/kg p.o. daily for 7 days,almost devoid of activity
same,DAI versus vehicle at any time point,"[1]; 30 mg/kg p.o. daily for 7 days, FIG. 3",without activity
